Data on 3 sequences can be found in patent publication US8609609B2, “Peptides and methods of use as therapeutics and screening agents” (North Carolina State University, priority 2008, dated 2013).

No end group written: not given here.

For one data set, the system named is unmodified ASL^LYS3. Briefly: Fluorescence titration of fluorescein-conjugated peptides with unmodified ASL^LYS3. Type of data set: binding. The conditions noted are these: fluorescein-conjugated peptide titrated with unmodified ASL^LYS3. The source says: (§1) The sequences of the target ASLLys3 and that of control ASLs are shown. Peptides were selected against the ASLLys3 and tested against all three. The ASL^LYS3 contains the natural modified nucleosides, 5-methoxycarbonylmethyl-2-thiouridine-34 (mcm5s2U34), 2-methylthio-N6-threonylcarbamoyladenosine-37 (ms2t6A37), and pseudouridine-39 (Ψ39).
(§2) Peptides were selected by phage display methods to bind to the modified ASL^LYS3. Control peptides were selected for their lack of recognition. Each peptide is synthesized with a conjugated fluorescein as a reporter. Here control peptide #21 is titrated with the three ASLs and the fluorescence is monitored.
Peptides #6 and #17 were selected by phage display methods to bind to the modified ASL^LYS3. These peptides along with control peptide #21 were synthesized with a conjugated fluorescein as a reporter. Here the three peptides are titrated with the unmodified ASL^LYS3 and the fluorescence is monitored.

For data set [1], the system named is fully modified human tRNA^LYS3 anticodon stem and loop domain (modified ASL^LYS3). Briefly: Fluorescence titration of fluorescein-conjugated peptides with modified ASL^LYS3. The class given is binding. The conditions noted are these: for binding to the modified ASL^LYS3 (fluorescence monitored): fluorescein-conjugated peptide titrated with modified ASL^LYS3; for specific recognition of the modifications of the ASLLys3: comparison of titration with modified and with unmodified ASL^LYS3.
Text: as §1, §2
Peptides #6 and #17 were selected by phage display methods to bind to the modified ASL^LYS3. These peptides along with control peptide #21 were synthesized with a conjugated fluorescein as a reporter. Here the three peptides are titrated with the modified ASLLys3 and the fluorescence is monitored.

The subject of a further data set is Feline (FEA) cells. Briefly: Shear-loading of feline (FEA) cells with fluorescein-conjugated peptide: fluorescence microscopy and toxicity staining. The class given is cell-based. The conditions noted are these: after 1, 2 and 3 days, at the concentrations used for loading. The source says: Feline (FEA) cells are “shear-loaded” with the peptide #6 that binds the modified ASLLys3. Fluorescein-conjugated, peptide #6 is located with fluorescence microscopy First row: Sham loaded cells. Second row: Peptide loaded. Third row: Peptide loaded at 40× magnification.

Data set [2] deals with EIAV infected feline (FEA) cells. Description: Toxicity by staining in EIAV infected feline (FEA) cells shear-loaded with peptide. Type of data set: cell-based. The protocol: (§3) EIAV is a lentivirus as is HIV, and as such utilizes the host cell tRNA^LYS3 for priming reverse transcription. EIAV infected feline (FEA) cells are “shear-loaded” with three concentrations (5, 10, 35) of peptide #6 that binds the modified ASL^LYS3 portion of HIV primer. Cells are sham loaded with phosphate buffered saline (PBS). The effect of the peptide on reverse transcriptase activity and on toxicity are determined after 1, 2 and 3 days.

Data set [3] deals with equine infectious anemia virus (EIAV). Description: Reverse transcriptase activity in EIAV infected feline (FEA) cells shear-loaded with peptide. The class given is cell-based. The protocol: as §3

Turning to “NGPECNAYMVRCRGYH (cysteine pairing not given here; also: fluorescein label, position not given here) [compound 17]”, the “binding to the unmodified ASL^LYS3 (fluorescence monitored)” value in the data set on unmodified ASL^LYS3 is listed as “do not exhibit binding”. Besides, the “binding to the modified ASL^LYS3 (fluorescence monitored)” value in data set [1] is “bind”.
Turning to “PAVASTSSLIIDGPF (also: fluorescein label, position not given here) [peptide #6]”, in the data set on unmodified ASL^LYS3, the “binding to the unmodified ASL^LYS3 (fluorescence monitored)” value was “do not exhibit binding”. Further, the “toxicity, determined by staining” value in the data set on Feline (FEA) cells is “not toxic”. Further, in data set [2] (high concentration), the “toxicity (staining of the cells)” value was “only slightly toxic”. Besides, the “toxicity (staining of the cells)” value in data set [2] (low and middle concentrations) is “not toxic”. In data set [3] (EIAV infected FEA cells loaded with fluorescein-conjugated peptide, three concentrations (5, 10, 35), versus PBS sham loaded), the reverse transcriptase activity result is given as “significantly reduced”. Moreover, the “bioactivity in cells against reverse transcription” value in data set [3] (EIAV infected FEA cells, at days 2 and 3) is “significant bioactivity”. Moreover, in data set [1], the “specific recognition of the modifications of the ASLLys3” value is reported as “specifically recognizing the modifications” and the “binding to the modified ASL^LYS3 (fluorescence monitored)” value is listed as “bind”.
Turning to “PKAFQYGGRAVGGLW (hASL LYS3 binding peptide) [compound 7]”, in data set [1], the “specific recognition of the modifications of the ASLLys3” value is “specifically recognizing the modifications”.
